Tests used:
Assay in all cases: relative viability (nuclei count vs DMSO), 5 days (fraction); higher = more cells survive
[1] = compound: O=S(=O)(c1ccccc1)N(CC(F)(F)F)c1ccc(C(O)(C(F)(F)F)C(F)(F)F)cc1 + CCNC(=O)c1noc(-c2cc(C(C)C)c(O)cc2O)c1-c1ccc(CN2CCOCC2)cc1 [Luminespib] (partner 0.01 µM)
Summary of the method: (§1)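 Nuclei were stained with Hoechst during a one-step fixation (final 0.05% Triton X-100, 1% formaldehyde, 1 ug/ml Hoechst) carried out 5 days after dosing, then counted on 4× images. The cells, lung cancer lines in 1536-well plates, had been dosed by pin tool the day after seeding with one drug alone or a fixed anchor-drug dose plus five library-drug doses (not always all listed) in √10 steps. Relative viability is the nuclei count in treated wells divided by that in vehicle wells, and each value is the median of duplicate plates.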

[2] = compound: O=S(=O)(c1ccccc1)N(CC(F)(F)F)c1ccc(C(O)(C(F)(F)F)C(F)(F)F)cc1 + CC(C)C[C@H](NC(=O)[C@H](Cc1ccccc1)NC(=O)c1cnccn1)B(O)O [Bortezomib] (partner 0.002 µM)
Summary of the method: as §1

[3] = compound: O=S(=O)(c1ccccc1)N(CC(F)(F)F)c1ccc(C(O)(C(F)(F)F)C(F)(F)F)cc1 + Cc1cc(Nc2cc(N3CCN(C)CC3)nc(Sc3ccc(NC(=O)C4CC4)cc3)n2)n[nH]1 [Tozasertib] (partner 0.1 µM)
Summary of the method: as §1

[4] = compound: O=S(=O)(c1ccccc1)N(CC(F)(F)F)c1ccc(C(O)(C(F)(F)F)C(F)(F)F)cc1 + Cc1nc(Nc2ncc(C(=O)Nc3c(C)cccc3Cl)s2)cc(N2CCN(CCO)CC2)n1 [Dasatinib] (partner 0.075 µM)
Summary of the method: as §1

RO-3306 + Foretinib = compound: C1=CC2=C(C=CC(=C2)C=C3C(=O)NC(=NCC4=CC=CS4)S3)N=C1 [RO-3306] + COc1cc2c(Oc3ccc(NC(=O)C4(C(=O)Nc5ccc(F)cc5)CC4)cc3F)ccnc2cc1OCCCN1CCOCC1 [Foretinib] (partner 0.25 µM)
Summary of the method: as §1

Cell Line	relative viability ([1]; first compound 0.8 µM)	relative viability ([1]; first compound 2.53 µM)	relative viability ([1]; first compound 8 µM)	relative viability ([2]; first compound 0.8 µM)	relative viability ([2]; first compound 2.53 µM)	relative viability ([2]; first compound 8 µM)	relative viability ([3]; first compound 0.8 µM)	relative viability ([3]; first compound 2.53 µM)	relative viability ([3]; first compound 8 µM)	relative viability ([4]; first compound 0.8 µM)	relative viability ([4]; first compound 2.53 µM)	relative viability ([4]; first compound 8 µM)	relative viability (RO-3306 + Foretinib; first compound 0.01 µM)	relative viability (RO-3306 + Foretinib; first compound 0.03162 µM)	relative viability (RO-3306 + Foretinib; first compound 0.1 µM)	relative viability (RO-3306 + Foretinib; first compound 0.3162 µM)	relative viability (RO-3306 + Foretinib; first compound 1 µM)
NCI-H727	0.389	0.292	0.358	1.23	0.762	0.737	0.605	0.572	0.674	0.408	0.302	0.325	1.03	0.94	0.74	1.21	1.01
LU99A	0.332	0.226	0.185	1.34	1.17	1.16	0.235	0.238	0.253	0.652	0.603	0.629	0.869	0.798	0.844	0.835	0.733
SK-LU-1	0.169	0.165	0.196	1.09	1.04	1.38	0.285	0.328	0.301	0.161	0.166	0.177	0.853	0.783	0.831	0.778	0.712
201T	1.05	0.887	0.975	1.02	1.04	1	0.927	0.854	0.863	0.463	0.435	0.497	1.28	1.27	1.01	1.03	0.613
COR-L23	0.953	0.728	0.628	1.18	0.945	0.914	0.159	0.152	0.164	0.591	0.461	0.5	0.958	0.941	0.966	1.13	1.08
LCLC-97TM1	0.716	0.744	0.682	0.397	0.457	0.723	0.218	0.21	0.156	0.724	0.734	0.682	0.928	0.866	0.927	0.9	1.01
PC-14	0.153	0.132	0.19	0.986	0.88	0.496	0.559	0.445	0.34	0.265	0.213	0.106	0.968	0.739	0.935	1.04	0.917
NCI-H1651	0.995	0.871	0.732	0.981	0.957	0.797	0.734	0.687	0.564	0.486	0.434	0.306	0.986	0.723	0.879	0.8	0.823
HCC-15	0.299	0.233	0.245	1.08	0.923	0.948	0.498	0.341	0.322	0.616	0.496	0.539	1.19	0.954	0.963	1.01	0.93
NCI-H1755	0.505	0.418	0.458	1.07	0.933	1.03	0.501	0.553	0.426	0.373	0.368	0.429	0.939	0.973	0.921	0.927	0.936
